Data as given in the supplement of paper PMC10307832.

Legend:
Assay in all cases: relative viability (nuclei count vs DMSO), 5 days (fraction); higher = more cells survive
RAF265 + Bortezomib = compound: Cn1c(Nc2ccc(C(F)(F)F)cc2)nc2cc(Oc3ccnc(-c4ncc(C(F)(F)F)[nH]4)c3)ccc21 [RAF265] + CC(C)C[C@H](NC(=O)[C@H](Cc1ccccc1)NC(=O)c1cnccn1)B(O)O [Bortezomib] (partner 0.002 µM)
Procedure, shortened: (§1)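 Relative viability divides the nuclei count in treated wells by that in vehicle wells. Lung cancer cell lines were seeded in 1536-well plates, dosed by pin tool the next day, and fixed and stained after 5 days in one step with final 0.05% Triton X-100, 1% formaldehyde and 1 ug/ml Hoechst. Dosing was a single drug or a fixed anchor-drug dose plus five library-drug doses (not always all listed) in √10 steps, and values are medians of duplicate plates imaged at 4×.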

RAF265 + Lapatinib = compound: Cn1c(Nc2ccc(C(F)(F)F)cc2)nc2cc(Oc3ccnc(-c4ncc(C(F)(F)F)[nH]4)c3)ccc21 [RAF265] + CS(=O)(=O)CCNCc1ccc(-c2ccc3ncnc(Nc4ccc(OCc5cccc(F)c5)c(Cl)c4)c3c2)o1 [Lapatinib] (partner 2 µM)
Procedure, shortened: as §1

Doramapimod + Pemetrexed = compound: Cc1ccc(-n2nc(C(C)(C)C)cc2NC(=O)Nc2ccc(OCCN3CCOCC3)c3ccccc23)cc1 [Doramapimod] + Nc1nc2[nH]cc(CCc3ccc(C(=O)N[C@@H](CCC(=O)O)C(=O)O)cc3)c2c(=O)[nH]1 [Pemetrexed] (partner 0.2 µM)
Procedure, shortened: as §1

RAF265 + Tozasertib = compound: Cn1c(Nc2ccc(C(F)(F)F)cc2)nc2cc(Oc3ccnc(-c4ncc(C(F)(F)F)[nH]4)c3)ccc21 [RAF265] + Cc1cc(Nc2cc(N3CCN(C)CC3)nc(Sc3ccc(NC(=O)C4CC4)cc3)n2)n[nH]1 [Tozasertib] (partner 0.1 µM)
Procedure, shortened: as §1

With LU99A the relative viability (RAF265 + Bortezomib; first compound 0.01 µM) was 1.18, the relative viability (RAF265 + Bortezomib; first compound 0.03162 µM) was 1.11 and the relative viability (RAF265 + Bortezomib; first compound 0.1 µM) was 0.697. The relative viability (RAF265 + Bortezomib; first compound 0.3162 µM) was 0.605, the relative viability (RAF265 + Bortezomib; first compound 1 µM) was 0.409 and the relative viability (RAF265 + Lapatinib; first compound 0.01 µM) was 1.02. The relative viability (RAF265 + Lapatinib; first compound 0.03162 µM) was 0.838, the relative viability (RAF265 + Lapatinib; first compound 0.1 µM) was 0.61 and the relative viability (RAF265 + Lapatinib; first compound 0.3162 µM) was 0.496. The relative viability (RAF265 + Lapatinib; first compound 1 µM) was 0.324, the relative viability (Doramapimod + Pemetrexed; first compound 0.02 µM) was 0.175 and the relative viability (Doramapimod + Pemetrexed; first compound 0.06325 µM) was 0.196. For the same cell line, the relative viability (Doramapimod + Pemetrexed; first compound 0.2 µM) was 0.155, the relative viability (Doramapimod + Pemetrexed; first compound 0.6325 µM) was 0.18 and the relative viability (Doramapimod + Pemetrexed; first compound 2 µM) was 0.323. The relative viability (RAF265 + Tozasertib; first compound 0.01 µM) was 0.318, the relative viability (RAF265 + Tozasertib; first compound 0.03162 µM) was 0.285 and the relative viability (RAF265 + Tozasertib; first compound 0.1 µM) was 0.28. It also gave a relative viability (RAF265 + Tozasertib; first compound 0.3162 µM) of 0.291 and a relative viability (RAF265 + Tozasertib; first compound 1 µM) of 0.195.
Work on BEN yielded a relative viability (RAF265 + Bortezomib; first compound 0.01 µM) of 0.993, a relative viability (RAF265 + Bortezomib; first compound 0.03162 µM) of 0.878 and a relative viability (RAF265 + Bortezomib; first compound 0.1 µM) of 0.777. It also gave a relative viability (RAF265 + Bortezomib; first compound 0.3162 µM) of 0.85, a relative viability (RAF265 + Bortezomib; first compound 1 µM) of 0.547 and a relative viability (RAF265 + Lapatinib; first compound 0.01 µM) of 0.726. The relative viability (RAF265 + Lapatinib; first compound 0.03162 µM) was 0.76, the relative viability (RAF265 + Lapatinib; first compound 0.1 µM) was 0.945 and the relative viability (RAF265 + Lapatinib; first compound 0.3162 µM) was 0.831. It also gave a relative viability (RAF265 + Lapatinib; first compound 1 µM) of 0.557, a relative viability (Doramapimod + Pemetrexed; first compound 0.02 µM) of 0.74 and a relative viability (Doramapimod + Pemetrexed; first compound 0.06325 µM) of 0.849. The relative viability (Doramapimod + Pemetrexed; first compound 0.2 µM) was 0.795, the relative viability (Doramapimod + Pemetrexed; first compound 0.6325 µM) was 0.673 and the relative viability (Doramapimod + Pemetrexed; first compound 2 µM) was 0.795. It also gave a relative viability (RAF265 + Tozasertib; first compound 0.01 µM) of 0.441, a relative viability (RAF265 + Tozasertib; first compound 0.03162 µM) of 0.575 and a relative viability (RAF265 + Tozasertib; first compound 0.1 µM) of 0.468. The relative viability (RAF265 + Tozasertib; first compound 0.3162 µM) was 0.554 and the relative viability (RAF265 + Tozasertib; first compound 1 µM) was 0.407.
SK-LU-1 showed a relative viability (RAF265 + Bortezomib; first compound 0.01 µM) of 1.18, a relative viability (RAF265 + Bortezomib; first compound 0.03162 µM) of 1.08 and a relative viability (RAF265 + Bortezomib; first compound 0.1 µM) of 1.09. The relative viability (RAF265 + Bortezomib; first compound 0.3162 µM) was 0.453, the relative viability (RAF265 + Bortezomib; first compound 1 µM) was 0.512 and the relative viability (RAF265 + Lapatinib; first compound 0.01 µM) was 0.685. For the same cell line, the relative viability (RAF265 + Lapatinib; first compound 0.03162 µM) was 0.669, the relative viability (RAF265 + Lapatinib; first compound 0.1 µM) was 0.669 and the relative viability (RAF265 + Lapatinib; first compound 0.3162 µM) was 0.61. For the same cell line, the relative viability (RAF265 + Lapatinib; first compound 1 µM) was 0.34, the relative viability (Doramapimod + Pemetrexed; first compound 0.02 µM) was 1 and the relative viability (Doramapimod + Pemetrexed; first compound 0.06325 µM) was 0.937. For the same cell line, the relative viability (Doramapimod + Pemetrexed; first compound 0.2 µM) was 0.964, the relative viability (Doramapimod + Pemetrexed; first compound 0.6325 µM) was 0.863 and the relative viability (Doramapimod + Pemetrexed; first compound 2 µM) was 0.946. The relative viability (RAF265 + Tozasertib; first compound 0.01 µM) was 0.333, the relative viability (RAF265 + Tozasertib; first compound 0.03162 µM) was 0.273 and the relative viability (RAF265 + Tozasertib; first compound 0.1 µM) was 0.296. For the same cell line, the relative viability (RAF265 + Tozasertib; first compound 0.3162 µM) was 0.278 and the relative viability (RAF265 + Tozasertib; first compound 1 µM) was 0.204.
Cell Line NCI-H1975 has a relative viability (RAF265 + Bortezomib; first compound 0.01 µM) of 0.46, a relative viability (RAF265 + Bortezomib; first compound 0.03162 µM) of 0.342 and a relative viability (RAF265 + Bortezomib; first compound 0.1 µM) of 0.334. The relative viability (RAF265 + Bortezomib; first compound 0.3162 µM) was 0.322, the relative viability (RAF265 + Bortezomib; first compound 1 µM) was 0.229 and the relative viability (RAF265 + Lapatinib; first compound 0.01 µM) was 0.809. For the same cell line, the relative viability (RAF265 + Lapatinib; first compound 0.03162 µM) was 0.791, the relative viability (RAF265 + Lapatinib; first compound 0.1 µM) was 0.618 and the relative viability (RAF265 + Lapatinib; first compound 0.3162 µM) was 0.469. It also gave a relative viability (RAF265 + Lapatinib; first compound 1 µM) of 0.412, a relative viability (Doramapimod + Pemetrexed; first compound 0.02 µM) of 0.305 and a relative viability (Doramapimod + Pemetrexed; first compound 0.06325 µM) of 0.276. It also gave a relative viability (Doramapimod + Pemetrexed; first compound 0.2 µM) of 0.304, a relative viability (Doramapimod + Pemetrexed; first compound 0.6325 µM) of 0.293 and a relative viability (Doramapimod + Pemetrexed; first compound 2 µM) of 0.282. For the same cell line, the relative viability (RAF265 + Tozasertib; first compound 0.01 µM) was 0.676, the relative viability (RAF265 + Tozasertib; first compound 0.03162 µM) was 0.621 and the relative viability (RAF265 + Tozasertib; first compound 0.1 µM) was 0.7. The relative viability (RAF265 + Tozasertib; first compound 0.3162 µM) was 0.379 and the relative viability (RAF265 + Tozasertib; first compound 1 µM) was 0.126.
In the case of RERF-LC-KJ, the relative viability (RAF265 + Bortezomib; first compound 0.01 µM) is reported as 1.17, the relative viability (RAF265 + Bortezomib; first compound 0.03162 µM) is reported as 1.16 and the relative viability (RAF265 + Bortezomib; first compound 0.1 µM) is reported as 1.07. For the same cell line, the relative viability (RAF265 + Bortezomib; first compound 0.3162 µM) was 1.03, the relative viability (RAF265 + Bortezomib; first compound 1 µM) was 0.761 and the relative viability (RAF265 + Lapatinib; first compound 0.01 µM) was 0.837. For the same cell line, the relative viability (RAF265 + Lapatinib; first compound 0.03162 µM) was 0.776, the relative viability (RAF265 + Lapatinib; first compound 0.1 µM) was 0.827 and the relative viability (RAF265 + Lapatinib; first compound 0.3162 µM) was 0.784. The relative viability (RAF265 + Lapatinib; first compound 1 µM) was 0.679, the relative viability (Doramapimod + Pemetrexed; first compound 0.02 µM) was 0.471 and the relative viability (Doramapimod + Pemetrexed; first compound 0.06325 µM) was 0.457. For the same cell line, the relative viability (Doramapimod + Pemetrexed; first compound 0.2 µM) was 0.474, the relative viability (Doramapimod + Pemetrexed; first compound 0.6325 µM) was 0.367 and the relative viability (Doramapimod + Pemetrexed; first compound 2 µM) was 0.501. It also gave a relative viability (RAF265 + Tozasertib; first compound 0.01 µM) of 0.54, a relative viability (RAF265 + Tozasertib; first compound 0.03162 µM) of 0.482 and a relative viability (RAF265 + Tozasertib; first compound 0.1 µM) of 0.507. The relative viability (RAF265 + Tozasertib; first compound 0.3162 µM) was 0.39 and the relative viability (RAF265 + Tozasertib; first compound 1 µM) was 0.386.
HCC-78 showed a relative viability (RAF265 + Bortezomib; first compound 0.01 µM) of 0.535, a relative viability (RAF265 + Bortezomib; first compound 0.03162 µM) of 0.506 and a relative viability (RAF265 + Bortezomib; first compound 0.1 µM) of 0.52. The relative viability (RAF265 + Bortezomib; first compound 0.3162 µM) was 0.956, the relative viability (RAF265 + Bortezomib; first compound 1 µM) was 0.423 and the relative viability (RAF265 + Lapatinib; first compound 0.01 µM) was 0.902. For the same cell line, the relative viability (RAF265 + Lapatinib; first compound 0.03162 µM) was 0.702, the relative viability (RAF265 + Lapatinib; first compound 0.1 µM) was 1.24 and the relative viability (RAF265 + Lapatinib; first compound 0.3162 µM) was 0.938. It also gave a relative viability (RAF265 + Lapatinib; first compound 1 µM) of 0.209, a relative viability (Doramapimod + Pemetrexed; first compound 0.02 µM) of 0.879 and a relative viability (Doramapimod + Pemetrexed; first compound 0.06325 µM) of 0.883. For the same cell line, the relative viability (Doramapimod + Pemetrexed; first compound 0.2 µM) was 0.918, the relative viability (Doramapimod + Pemetrexed; first compound 0.6325 µM) was 0.967 and the relative viability (Doramapimod + Pemetrexed; first compound 2 µM) was 0.887. For the same cell line, the relative viability (RAF265 + Tozasertib; first compound 0.01 µM) was 0.349, the relative viability (RAF265 + Tozasertib; first compound 0.03162 µM) was 0.472 and the relative viability (RAF265 + Tozasertib; first compound 0.1 µM) was 0.417. For the same cell line, the relative viability (RAF265 + Tozasertib; first compound 0.3162 µM) was 0.463 and the relative viability (RAF265 + Tozasertib; first compound 1 µM) was 0.396.
In the case of NCI-H1915, the relative viability (RAF265 + Bortezomib; first compound 0.01 µM) is reported as 0.96, the relative viability (RAF265 + Bortezomib; first compound 0.03162 µM) is reported as 0.95 and the relative viability (RAF265 + Bortezomib; first compound 0.1 µM) is reported as 0.887. The relative viability (RAF265 + Bortezomib; first compound 0.3162 µM) was 0.816, the relative viability (RAF265 + Bortezomib; first compound 1 µM) was 0.417 and the relative viability (RAF265 + Lapatinib; first compound 0.01 µM) was 0.968. It also gave a relative viability (RAF265 + Lapatinib; first compound 0.03162 µM) of 0.92, a relative viability (RAF265 + Lapatinib; first compound 0.1 µM) of 0.909 and a relative viability (RAF265 + Lapatinib; first compound 0.3162 µM) of 0.715. The relative viability (RAF265 + Lapatinib; first compound 1 µM) was 0.371, the relative viability (Doramapimod + Pemetrexed; first compound 0.02 µM) was 0.452 and the relative viability (Doramapimod + Pemetrexed; first compound 0.06325 µM) was 0.464. It also gave a relative viability (Doramapimod + Pemetrexed; first compound 0.2 µM) of 0.498, a relative viability (Doramapimod + Pemetrexed; first compound 0.6325 µM) of 0.699 and a relative viability (Doramapimod + Pemetrexed; first compound 2 µM) of 0.419. For the same cell line, the relative viability (RAF265 + Tozasertib; first compound 0.01 µM) was 0.437, the relative viability (RAF265 + Tozasertib; first compound 0.03162 µM) was 0.428 and the relative viability (RAF265 + Tozasertib; first compound 0.1 µM) was 0.457. The relative viability (RAF265 + Tozasertib; first compound 0.3162 µM) was 0.278 and the relative viability (RAF265 + Tozasertib; first compound 1 µM) was 0.163.
